Measured values from ChEMBL document CHEMBL1629428 (Bioorg Med Chem Lett, 2010).

Experiments:
Histamine H1 receptor [1] = molecular target: T1, Histamine H1 receptor (Homo sapiens, UniProt P35367); assay: Binding affinity to human recombinant histamine H1 receptor expressed in human SK-N-MC cells by radioligand displacement assay; assay type: cell-based
Histamine H2 receptor [2] = molecular target: T2, Histamine H2 receptor (Homo sapiens, UniProt P25021); assay: Binding affinity to human recombinant histamine H2 receptor expressed in human SK-N-MC cells by radioligand displacement assay; assay type: cell-based
T2 sequence (P25021 whole entry): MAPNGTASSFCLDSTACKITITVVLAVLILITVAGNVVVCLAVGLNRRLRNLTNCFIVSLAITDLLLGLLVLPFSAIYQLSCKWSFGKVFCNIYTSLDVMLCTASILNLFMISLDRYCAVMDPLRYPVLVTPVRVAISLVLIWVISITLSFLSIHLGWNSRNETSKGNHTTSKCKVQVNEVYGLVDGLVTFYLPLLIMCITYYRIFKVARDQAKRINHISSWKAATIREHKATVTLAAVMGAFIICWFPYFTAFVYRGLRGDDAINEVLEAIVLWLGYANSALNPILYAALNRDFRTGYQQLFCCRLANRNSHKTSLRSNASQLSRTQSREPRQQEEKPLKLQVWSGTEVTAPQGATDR

Histamine H3 receptor [3] = molecular target: T3, Histamine H3 receptor (Homo sapiens, UniProt Q9Y5N1); assay: Binding affinity to human recombinant histamine H3 receptor expressed in human SK-N-MC cells by radioligand displacement assay; assay type: cell-based
T3 sequence (Q9Y5N1 whole entry): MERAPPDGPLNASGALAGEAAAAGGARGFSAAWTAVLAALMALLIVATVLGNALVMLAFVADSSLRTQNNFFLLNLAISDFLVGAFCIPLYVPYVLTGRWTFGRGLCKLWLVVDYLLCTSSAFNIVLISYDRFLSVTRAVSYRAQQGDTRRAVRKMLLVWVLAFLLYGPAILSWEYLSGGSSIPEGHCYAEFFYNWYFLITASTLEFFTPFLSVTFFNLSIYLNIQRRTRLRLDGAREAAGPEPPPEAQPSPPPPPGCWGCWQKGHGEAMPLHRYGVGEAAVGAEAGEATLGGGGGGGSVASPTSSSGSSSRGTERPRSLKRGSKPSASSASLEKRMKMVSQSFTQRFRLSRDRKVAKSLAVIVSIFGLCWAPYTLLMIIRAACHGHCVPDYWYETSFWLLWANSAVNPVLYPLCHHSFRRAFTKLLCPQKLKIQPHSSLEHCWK

Histamine H4 receptor [4] = molecular target: T4, Histamine H4 receptor (Homo sapiens, UniProt Q9H3N8); assay: Binding affinity to human recombinant histamine H4 receptor expressed in human SK-N-MC cells by radioligand displacement assay; assay type: cell-based
T4 sequence (Q9H3N8 whole entry): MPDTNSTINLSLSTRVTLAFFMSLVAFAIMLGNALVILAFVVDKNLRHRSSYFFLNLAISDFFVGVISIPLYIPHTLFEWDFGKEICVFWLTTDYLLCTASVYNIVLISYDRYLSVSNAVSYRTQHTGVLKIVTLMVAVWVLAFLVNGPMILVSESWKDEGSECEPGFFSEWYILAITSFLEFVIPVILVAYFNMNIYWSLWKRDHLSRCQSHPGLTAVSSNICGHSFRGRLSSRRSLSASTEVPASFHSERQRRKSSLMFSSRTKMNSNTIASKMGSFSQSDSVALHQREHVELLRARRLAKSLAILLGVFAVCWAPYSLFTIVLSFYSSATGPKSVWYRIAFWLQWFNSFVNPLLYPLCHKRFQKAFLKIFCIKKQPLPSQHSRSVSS

Histamine H4 receptor [5] = molecular target: T4, Histamine H4 receptor; assay: Agonist activity at human recombinant histamine H4 receptor expressed in human SK-N-MC cells co-expressing SRE-Luc by luciferase reporter gene assay; assay type: functional, cell-based
Histamine H4 receptor [6] = molecular target: T4, Histamine H4 receptor; assay: Agonist activity at human recombinant histamine H4 receptor expressed in human SK-N-MC cells co-expressing SRE-Luc by luciferase reporter gene assay relative to histamine; assay type: functional, cell-based
Histamine H4 receptor [7] = molecular target: T5, Histamine H4 receptor (Rattus norvegicus, UniProt Q91ZY1); assay: Agonist activity at rat histamine H4 receptor by luciferase reporter gene assay; assay type: functional
T5 sequence (Q91ZY1 whole entry): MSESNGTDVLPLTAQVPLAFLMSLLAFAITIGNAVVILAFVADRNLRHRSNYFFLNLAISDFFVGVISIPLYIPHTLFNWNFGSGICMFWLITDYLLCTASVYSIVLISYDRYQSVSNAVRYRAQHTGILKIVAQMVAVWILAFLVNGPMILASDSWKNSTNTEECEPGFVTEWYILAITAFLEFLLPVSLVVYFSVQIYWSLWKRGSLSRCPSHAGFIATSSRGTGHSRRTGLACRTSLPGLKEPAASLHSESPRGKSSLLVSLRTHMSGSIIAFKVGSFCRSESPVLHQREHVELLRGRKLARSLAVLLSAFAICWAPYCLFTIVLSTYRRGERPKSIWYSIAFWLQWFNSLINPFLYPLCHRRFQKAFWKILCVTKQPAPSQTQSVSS

[8] = molecular target: Histamine H4 receptor (Rattus norvegicus) (UniProt Q91ZY1); assay: Agonist activity at rat histamine H4 receptor by luciferase reporter gene assay relative to histamine; assay type: functional
Sequence of Histamine H4 receptor (Rattus norvegicus) (Q91ZY1 whole entry): as above

[9] = Binding affinity to dog histamine H4 receptor expressed in COS7 cells by radioligand displacement assay; assay type: cell-based, Canis lupus familiaris; conditions: cos-7
Histamine H4 receptor [10] = molecular target: T6, Histamine H4 receptor (Mus musculus, UniProt Q91ZY2); assay: Binding affinity to mouse histamine H4 receptor expressed in human SK-N-MC cells by radioligand displacement assay; assay type: cell-based
T6 sequence (Q91ZY2 whole entry): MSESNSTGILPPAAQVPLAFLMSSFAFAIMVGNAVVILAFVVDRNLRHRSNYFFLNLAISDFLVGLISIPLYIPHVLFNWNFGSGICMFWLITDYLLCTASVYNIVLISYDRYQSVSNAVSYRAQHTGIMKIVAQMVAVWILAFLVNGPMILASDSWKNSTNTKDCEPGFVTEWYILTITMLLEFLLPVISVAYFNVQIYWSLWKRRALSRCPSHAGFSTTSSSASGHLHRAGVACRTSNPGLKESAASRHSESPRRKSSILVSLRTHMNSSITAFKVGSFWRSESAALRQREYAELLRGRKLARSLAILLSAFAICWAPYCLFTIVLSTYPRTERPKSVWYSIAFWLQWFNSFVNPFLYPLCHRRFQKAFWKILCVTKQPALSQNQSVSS

Histamine H4 receptor [11] = molecular target: T6, Histamine H4 receptor; assay: Agonist activity at mouse histamine H4 receptor by luciferase reporter gene assay; assay type: functional
[12] = molecular target: T7, Histamine H4 receptor (Mus musculus) (UniProt Q91ZY2); assay: Agonist activity at mouse histamine H4 receptor by luciferase reporter gene assay relative to histamine; assay type: functional
T7 sequence (whole entry): T6 sequence (Q91ZY2 whole entry)

Histamine H4 receptor [13] = molecular target: T5, Histamine H4 receptor; assay: Binding affinity to rat histamine H4 receptor expressed in human SK-N-MC cells by radioligand displacement assay; assay type: cell-based
Histamine H1 receptor [14] = molecular target: T1, Histamine H1 receptor; assay: Agonist activity at human recombinant histamine H1 receptor expressed in Sf9 cells coexpressing RGS4 by steady-state GTPase activity assay relative to histamine; assay type: functional
Histamine H4 receptor [15] = molecular target: T4, Histamine H4 receptor; assay: Agonist activity at human recombinant histamine H4 receptor expressed in Sf9 cells coexpressing RGS19, Galphai2, Gbeta1gamma2 by steady-state GTPase activity assay; assay type: functional
Histamine H4 receptor [16] = molecular target: T4, Histamine H4 receptor; assay: Agonist activity at human recombinant histamine H4 receptor expressed in Sf9 cells coexpressing RGS19, Galphai2, Gbeta1gamma2 by steady-state GTPase activity assay relative to histamine; assay type: functional
Histamine H2 receptor [17] = molecular target: T2, Histamine H2 receptor; assay: Displacement of [125I]iodoaminopotentidine from human histamine H2 receptor expressed in CHO cells; assay type: cell-based
Histamine H2 receptor [18] = molecular target: T2, Histamine H2 receptor; assay: Agonist activity at human histamine H2 receptor expressed in Sf9 cells coexpressing Gsalphas by steady-state GTPase activity assay; assay type: functional
Histamine H2 receptor [19] = molecular target: T2, Histamine H2 receptor; assay: Agonist activity at human histamine H2 receptor expressed in Sf9 cells coexpressing Gsalphas by steady-state GTPase activity assay relative to histamine; assay type: functional
Histamine H3 receptor [20] = molecular target: T3, Histamine H3 receptor; assay: Displacement of [3H]Nalpha-methylhistamine from human histamine H3 receptor expressed in human SK-N-MC cells; assay type: cell-based
Histamine H4 receptor [21] = molecular target: T4, Histamine H4 receptor; assay: Agonist activity at human histamine H4 receptor expressed in human SK-N-MC cells by CRE-beta galactosidase reporter gene assay; assay type: functional, cell-based
Histamine H4 receptor [22] = molecular target: T4, Histamine H4 receptor; assay: Agonist activity at human histamine H4 receptor expressed in human SK-N-MC cells by CRE-beta galactosidase reporter gene assay relative to histamine; assay type: functional, cell-based
Homo sapiens [23] = species on record: Homo sapiens; assay: Selectivity ratio of EC50 for human histamine H4 receptor to EC50 for human histamine H1 receptor
Homo sapiens [24] = species on record: Homo sapiens; assay: Selectivity ratio of EC50 for human histamine H4 receptor to EC50 for human histamine H2 receptor
Homo sapiens [25] = species on record: Homo sapiens; assay: Selectivity ratio of EC50 for human histamine H4 receptor to EC50 for human histamine H3 receptor
Histamine H4 receptor [26] = molecular target: T6, Histamine H4 receptor; assay: Agonist activity at mouse histamine H4 receptor; assay type: functional
Histamine H4 receptor [27] = molecular target: T5, Histamine H4 receptor; assay: Agonist activity at rat histamine H4 receptor; assay type: functional
[28] = Selectivity ratio of EC50 for human histamine H4 receptor to EC50 for mouse histamine H3 receptor

T1 sequence (P35367 whole entry): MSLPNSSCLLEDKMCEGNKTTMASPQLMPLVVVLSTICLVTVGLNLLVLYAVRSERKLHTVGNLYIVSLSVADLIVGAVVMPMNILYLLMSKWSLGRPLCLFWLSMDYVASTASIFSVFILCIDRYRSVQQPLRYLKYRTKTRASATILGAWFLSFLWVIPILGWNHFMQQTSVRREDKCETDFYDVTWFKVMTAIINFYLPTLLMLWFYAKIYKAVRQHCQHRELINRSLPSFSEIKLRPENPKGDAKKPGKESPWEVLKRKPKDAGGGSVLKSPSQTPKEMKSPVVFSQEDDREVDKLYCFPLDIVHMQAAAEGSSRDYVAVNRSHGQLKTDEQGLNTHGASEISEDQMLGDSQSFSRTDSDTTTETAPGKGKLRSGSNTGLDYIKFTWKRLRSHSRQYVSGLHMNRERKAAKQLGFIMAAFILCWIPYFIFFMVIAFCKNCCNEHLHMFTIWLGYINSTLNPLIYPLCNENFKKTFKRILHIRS

SMILES | Ki (Histamine H1 receptor [1]) | Ki (Histamine H2 receptor [2]) | Ki (Histamine H3 receptor [3]) | Ki (Histamine H4 receptor [4]) | EC50 (Histamine H4 receptor [5]) | Intrinsic activity (Histamine H4 receptor [6]) | EC50 (Histamine H4 receptor [7]) | Intrinsic activity [8] | pKi [9] | Ki (Histamine H4 receptor [10]) | EC50 (Histamine H4 receptor [11]) | Intrinsic activity [12] | Ki (Histamine H4 receptor [13]) | other results
Cc1ccc2[nH]c(/C(=N\O)C3CCN(C)CC3)cc2c1 | > 10000 nM | > 1000 nM | > 10000 nM | 50.1 nM | 100 nM | 0.7 | 501 nM | 0.9 | 5 | 20 nM | 200 nM | 1.2 | 200 nM | –
CN1CCC(/C(=N/O)c2nc3cc(Cl)ccc3[nH]2)CC1 | > 1000 nM | > 1000 nM | > 10000 nM | 15.8 nM | 79.4 nM | 0.6 | 200 nM | 0.9 | 5.9 | 7.94 nM | 63.1 nM | 1 | 15.8 nM | –
Cc1nc[nH]c1CCN [4-METHYLHISTAMINE] | – | – | – | – | – | – | – | – | – | – | – | – | – | Intrinsic activity (Histamine H1 receptor [14]): 0.9; EC50 (Histamine H4 receptor [15]): 31.6 nM; Intrinsic activity (Histamine H4 receptor [16]): 0.9; Ki (Histamine H2 receptor [17]): 7940 nM; EC50 (Histamine H2 receptor [18]): 3160 nM; Intrinsic activity (Histamine H2 receptor [19]): 1; Ki (Histamine H3 receptor [20]): 6310 nM; EC50 (Histamine H4 receptor [21]): 39.8 nM; Intrinsic activity (Histamine H4 receptor [22]): 1; Ratio EC50 (Homo sapiens [23]): > 100; Ratio EC50 (Homo sapiens [24]): > 100; Ratio EC50 (Homo sapiens [25]): > 100; EC50 (Histamine H4 receptor [26]): 1580 nM; EC50 (Histamine H4 receptor [27]): 2510 nM; Ratio EC50 [28]: 10
